The values that follow come from patent publication US7514446B2, “Pyrimidine compounds” (SmithKline Beecham Corporation, priority 2003, dated 2009).

Where a name gives a salt, the structure may show the parent alone. Some results are limits rather than exact numbers.

This assay deals with T1, PLK1 kinase domain (Homo sapiens, UniProt P53350).
T1 construct: made in house; host or cells: baculovirus-infected T. ni insect cells
T1 sequence (P53350 21-346): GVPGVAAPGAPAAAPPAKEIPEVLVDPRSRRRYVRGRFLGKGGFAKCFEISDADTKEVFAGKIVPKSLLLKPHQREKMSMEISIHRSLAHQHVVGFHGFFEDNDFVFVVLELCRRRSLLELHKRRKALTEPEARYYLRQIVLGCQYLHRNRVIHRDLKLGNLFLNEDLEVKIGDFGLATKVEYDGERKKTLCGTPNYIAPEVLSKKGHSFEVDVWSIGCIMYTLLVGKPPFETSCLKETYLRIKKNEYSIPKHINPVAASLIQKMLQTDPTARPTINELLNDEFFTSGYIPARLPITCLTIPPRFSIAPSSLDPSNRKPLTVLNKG
The experiment in a line: Assay for inhibition of PLK1 (SPA, 33P-ATP, His-tagged PLK kinase domain). The class given is biochemical. The conditions noted are these: 2 μM ATP, read-out: Ave pIC50 PLK Enzyme Inhibition (converted). As to the method:
I. Assay for Inhibition of PLK1
A. Preparation of 6× N-terminal His-tagged PLK Kinase Domain
6× N-terminal His-tagged PLK kinase domain (amino acids 21-346 preceded by […]) was prepared from baculovirus infected T. ni cells under polyhedrin promoter control. All procedures were performed at 4° C. Cells were lysed in 25 mM HEPES, 200 mM NaCl, 25 mM imidazole; pH 8.0. The homogenate was centrifuged at 14K rpm in a SLA-1500 rotor for 40 min and the supernatant filtered through a 1.2 micron filter. The supernatant was loaded onto a Nickel chelating Sepharose (Amersham Pharmacia) column and washed with 25 mM HEPES, 500 mM NaCl, 25 mM imidazole; pH 8.0. The column was then washed with a 16.6% B step where buffer B is 25 mM HEPES, 500 mM NaCl, 300 mM imidazole; pH 8.0. Protein was eluted using a 10-column volume linear gradient from 16.6% B to 100% B. Fractions containing PLK were determined by SDS-PAGE. PLK was concentrated using a 10 kDa molecular weight cutoff membrane and then loaded onto a Superdex 75 gel filtration (Amersham Pharmacia) column equilibrated in 25 mM HEPES, 1 mM DTT, 500 mM NaCl; pH 8.0. Fractions containing PLK were determined by SDS-PAGE. PLK was pooled, aliquoted and stored at −80° C. Samples were quality controlled using mass spectrometry.
B. Enzyme Activity+/−Inhibitors was Determined as Follows:
Compounds were added to the plate (1 μl in 100% DMSO). DMSO (2% final) and EDTA (55.5 mM final) were used as controls. Reaction Mix A is prepared as follows at 4° C.:
Reaction Mix A (substrate Mix): • 25 mM HEPES, pH 7.2 • 15 mM MgCl2 • 2 μM ATP • 0.1 μCi/well ^33P-γ ATP (10 Ci/mMol) • 2 μM substrate peptide (Biotin-Ahx-[…]) Reaction Mix B is prepared as follows at 4° C.:
Reaction Mix B (Enzyme Mix) • 25 mM HEPES, pH 7.2 • 15 mM MgCl2 • 0.15 mg/ml BSA • 2 mM DTT • 2-10 nM PLK1 kinase domain
Reaction Mix A (20 μl) is added per well. Reaction Mix B (20 μl) is added per well. Incubate 1.5 hrs. at RT. The enzymatic reaction is stopped with 175 μl of SPA/EDTA bead mix (29 mM EDTA, 2.5 mg/ml Streptavidin-coated SPA in Standard Dulbecco's PBS (without Mg^2+ and Ca^2+), 60 μM ATP). Plates are sealed spun (after a 1 hr incubation at RT) at 1,000×g for 7 min or settled overnight, then plates counted in Packard TopCount for 30 seconds/well.
Take `COc1cc(Nc2ncc([N+](=O)[O-])c(Nc3ccccc3C(=O)O)n2)cc(OC)c1OC` [Example 1, 2-({5-nitro-2-[(3,4,5-trimethoxyphenyl)amino]pyrimidin-4-yl}amino)benzoic acid hydrochloride]: the IC50 is less than 100 nM.

Turning to `COc1cc(Nc2ncc(Br)c(Nc3ccccc3C(C)=O)n2)cc(OC)c1OC` [Example 11, 1-[2-({5-bromo-2-[(3,4,5-trimethoxyphenyl)amino]pyrimidin-4-yl}amino)phenylethanone hydrochloride], the IC50 was less than 100 nM.

For the compound `CNC(=O)c1ccccc1Nc1nc(Nc2ccc(NC(C)=O)cc2)ncc1[N+](=O)[O-]` [Example 13, 2-[(2-{[4-(acetylamino)phenyl]amino}-5-nitropyrimidin-4-yl)amino]-N-methylbenzamide hydrochloride], the IC50 is less than 100 nM.

Turning to `COC(=O)c1ccccc1Nc1nc(Nc2cc(OC)c(OC)c(OC)c2)ncc1[N+](=O)[O-]` [Example 17, Methyl 2-({5-nitro-2-[(3,4,5-trimethoxyphenyl)amino]pyrimidin-4-yl}amino)benzoate hydrochloride], the IC50 is less than 100 nM.

On to `CC(=O)Nc1ccc(Nc2ncc([N+](=O)[O-])c(Nc3ccccc3C(=O)OC3CCCCC3)n2)cc1` [Example 21, Cyclohexyl 2-[(2-{[4-(acetylamino)phenyl]amino}-5-nitropyrimidin-4-yl)amino]benzoate hydrochloride], for which the IC50 was less than 100 nM.

As to `CC(=O)Nc1ccc(Nc2ncc([N+](=O)[O-])c(Nc3ccccc3C(=O)O)n2)cc1` [Example 23, 2-[(2-{[4-(Acetylamino)phenyl]amino}-5-nitropyrimidin-4-yl)amino]benzoic acid hydrochloride], the IC50 was less than 100 nM.

Consider `CC(=O)Nc1ccc(Nc2ncc(Br)c(Nc3ccccc3C(C)=O)n2)cc1` [Example 24, N-[4-({4-[(2-Acetylphenyl)amino]-5-bromopyrimidin-2-yl}amino)phenyl]acetamide hydrochloride], for which the IC50 is less than 100 nM.

On to `CC(=O)Nc1ccc(Nc2ncc(Br)c(Nc3ccccc3N3CCOCC3)n2)cc1` [Example 25, N-[4-({5-Bromo-4-[(2-morpholin-4-ylphenyl)amino]pyrimidin-2-yl}amino)phenyl]acetamide hydrochloride], for which the IC50 is less than 100 nM.

Turning to `COc1cc(Nc2ncc(Br)c(Nc3ccccc3N3CCOCC3)n2)cc(OC)c1OC` [Example 27, 5-Bromo-N^4-(2-morpholin-4-ylphenyl)-N^2-(3,4,5-trimethoxyphenyl)-pyrimidine-2,4-diamine hydrochloride], the IC50 is 100 to 10000 nM.

As for `COc1cc(Nc2nc(Nc3ccc(NC(C)=O)cc3)ncc2Br)cc(OC)c1OC` [Example 28, N-[4-(5-Bromo-4-[(3,4,5-trimethoxyphenyl)amino]pyrimidin-2-yl}amino)phenyl]acetamide hydrochloride], the IC50 is more than 10000 nM.

As to `COC(=O)c1ccc(C(=O)OC)c(Nc2nc(Nc3ccc(NC(C)=O)cc3)ncc2[N+](=O)[O-])c1` [Example 29, Dimethyl 2-[(2-{[4-(acetylamino)phenyl]amino}-5-nitropyrimidin-4-yl)amino]terephthalate hydrochloride], the IC50 is 100 to 10000 nM.

In the case of `CC(=O)Nc1ccc(Nc2ncc([N+](=O)[O-])c(Nc3ccccc3C(=O)OCc3ccccc3)n2)cc1` [Example 30, Benzyl 2-[(2-{[4-(acetylamino)phenyl]amino}-5-nitropyrimidin-4-yl)amino]benzoate hydrochloride], the IC50 is 100 to 10000 nM.

On to `COC(=O)c1c(C)cccc1Nc1nc(Nc2ccc(NC(C)=O)cc2)ncc1[N+](=O)[O-]` [Example 31, Methyl 2-[(2-{[4-(acetylamino)phenyl]amino}-5-nitropyrimidin-4-yl)amino]-6-methylbenzoate hydrochloride], for which the IC50 is less than 100 nM.

`CC(=O)Nc1ccc(Nc2ncc([N+](=O)[O-])c(Nc3ccccc3C(=O)OCC(C)C)n2)cc1` [Example 32, Isobutyl 2-[(2-{[4-(acetylamino)phenyl]amino}-5-nitropyrimidin-4-yl)amino]benzoate hydrochloride]: the IC50 was less than 100 nM.

Consider `CC(=O)Nc1ccc(Nc2ncc([N+](=O)[O-])c(Nc3cccc(C)c3C(=O)O)n2)cc1` [Example 33, 2-[(2-{[4-(Acetylamino)phenyl]amino}-5-nitropyrimidin-4-yl)amino]-6-methylbenzoic acid hydrochloride], for which the IC50 was less than 100 nM.

As to `COc1cc(Nc2ncc([N+](=O)[O-])c(Nc3ccccc3C(C)=O)n2)cc(OC)c1OC` [Example 35, 1-[2-({5-Nitro-2-[(3,4,5-trimethoxyphenyl)amino]pyrimidin-4-yl}amino)phenyl]ethanone hydrochloride], the IC50 was less than 100 nM.

Consider `COc1cc(Nc2ncc([N+](=O)[O-])c(Nc3cccc4ccc(O)cc34)n2)cc(OC)c1OC` [Example 37, 8-({5-Nitro-2-[(3,4,5-trimethoxyphenyl)amino]pyrimidin-4-yl}amino)-2-naphthol hydrochloride], for which the IC50 is less than 100 nM.

On to `COc1cc(Nc2ncc(C(C)=O)c(Nc3ccccc3C(=O)NC(C)(C)C)n2)cc(OC)c1OC` [Example 38, N-(tert-butyl)-2-({5-methyl ketone-2-[(3,4,5-trimethoxyphenyl)amino]pyrimidin-4-yl}amino) benzamide], for which the IC50 is less than 100 nM.
